Experiments:
[1] = test system: HL-60 human promyelocytic leukemia cell line; test: MTT proliferation/viability assay, HL-60; type: cell-based; conditions: 72 h/37°C, mean ± S.D.
Experimental: (§1) The MCF-7 human breast adenocarcinoma cell line was purchased from the European Collection of Cell Cultures (U.K.). The HL-60 human promyelocytic leukemia cell line, HCT116 human colorectal carcinoma cell line, H9c2 rat heart-derived myoblast cell line and 3T3 mouse embryo fibroblast line, were obtained from the American Type Culture Collection (VA, U.S.A.). Cells were cultured in Dulbecco's modified Eagle's medium (DMEM, Lonza, Switzerland) with or without (for MCF-7 cells only) phenol red, supplemented with 10% heat-inactivated fetal bovine serum (FBS; Lonza, Switzerland), 1% penicillin/streptomycin solution (Lonza, Switzerland) and 10 mM HEPES buffer (pH 7.0-7.6; Sigma-Aldrich, Germany). The HL-60 cell line was maintained in RPMI medium (Sigma-Aldrich, Germany) supplemented with 10% heat-inactivated FBS and 1% penicillin/streptomycin solution. All cell lines were cultured in 75 cm^2 tissue culture flasks (Switzerland) at 37°C in a humidified atmosphere of 5% CO2. Sub-confluent cells or, in the case of HL-60 cells, a cell suspension, were sub-cultured every 3-4 days.
(§2) Cells were seeded in 96-well plates for 24 h/37°C at a density of 5,000 (MCF-7), 10,000 (HL-60), 2,000 (HCT116) and 10,000 (3T3 and H9c2) cells/well. For 3T3 and H9c2 cells, the medium was changed to serum- and pyruvate-free DMEM 24 h prior to the experiments. Anti-proliferative and cytotoxicity effects of the compounds were studied at different concentrations after incubations for 72 h/37°C. Viabilities of cells were determined using MTT assays (Sigma-Aldrich, Germany) according to the manufacturer's instructions on a Tecan Infinite 200M plate reader (Tecan, Austria). The proliferation/viability of treated groups was expressed as a percentage of the untreated controls (100%).

[2] = test system: 3T3 mouse embryo fibroblast line; test: MTT proliferation/viability assay, 3T3; type: cell-based; conditions: 72 h/37°C, mean ± S.D., serum- and pyruvate-free DMEM
Experimental: as §1, §2

[3] = test system: cancer cell lines (HL-60, MCF-7 and HCT116); test: MTT assay, cancer cell lines as a group; type: cell-based; conditions: Homo sapiens, HL-60, MCF-7, HCT116, 72 h/37°C, read-out: IC50 against cancer cells (range over cell lines)
Experimental: as §1, §2

[4] = test system: cellular labile iron pools; test: Fluorimetric calcein-AM assay of intracellular iron chelation; type: cell-based; conditions: 10 μmol·L^−1
Experimental: Iron chelation efficiency of the compounds at a concentration of 10 μmol·L^−1 was determined via 3 methods: (1) the calcein assay; (2) the ability of the ligands to induce ^59Fe mobilization from cells prelabeled with ^59Fe-transferrin; and (3) the efficacy of these agents to inhibit the uptake of ^59Fe from ^59Fe-transferrin [22, 38–40].
The fluorimetric calcein-AM assay was performed by established methods, as described previously. The Fe chelation efficiency of the metabolites in cells was expressed as a percentage of that of the parent chelator, Dp44mT or DpC (100%). For studies assessing the ability of these agents to induce ^59Fe mobilization and inhibit ^59Fe uptake from ^59Fe-transferrin by cells, human transferrin (Sigma-Aldrich, Germany) was labeled with ^59Fe (PerkinElmer, MA, USA) to generate ^59Fe-transferrin at a final specific activity of 500 pCi/pmol Fe, as previously described. The unbound ^59Fe was removed by exhaustive vacuum dialysis against a large excess of 0.15 M NaCl buffered to pH 7.4 with 1.4% NaHCO3 by standard methods.

[5] = Long-term stability in plasma samples at -80°C; type: in vitro ADME, rat; conditions: for Long-term stability: plasma, -80°C, 7 days; for decomposition on storage (in words): up to 7 days stored at −80°C
Experimental: The UHPLC-MS/MS methods for quantitative assays were validated with respect to selectivity, linearity, precision, accuracy, stability, recovery, matrix effects and dilution integrity (see […]
Linearity was examined over the concentration ranges described in Supplementary Table 1 using a weighted (1/x 2) linear regression in GraphPad Prism 6 (v. 6.04, GraphPad Software […]
Stability was assessed at low, medium and high concentration levels. Long -term stability was assessed for plasma samples at -80°C over a period of 7 days (three aliquots per level; Supplementary Table 3). […]

MCF-7 cells = test: In-vitro metabolism of the drugs in MCF-7 cells (HPLC-MS); type: in vitro ADME, human; conditions: MCF-7, 10 μmol·L^−1, 12 h, 37°C
Experimental: (§3) Breast cancer cells (MCF-7) and H9c2 heart-derived myoblasts were seeded in 100-mm Petri dishes (1,000,000 cells/dish) for 24 h/37°C. Freshly prepared stock solutions of Dp44mT and DpC in DMSO (Sigma-Aldrich, Germany) were diluted in culture medium to the required working concentration.
(§4) The cells were incubated for 12 h (37°C) with either Dp44mT or DpC at a concentration of 10 μmol·L^−1. After this incubation, the cells were harvested, washed twice with ice-cold PBS buffer, centrifuged (790 x g) and precipitated with acetonitrile (200 μL/10^6 cells) prior to the analysis. The overlaying medium was also analyzed to search for possible metabolites. […] All samples were analyzed using HPLC-MS as described below in the Section: HPLC-MS method to identify metabolites of the drugs.
(§5) To search for the metabolites, plasma was precipitated with methanol or acetonitrile (plasma/solvent ratio – 1:3, v/v), treated using solid phase extraction (SPE; Discovery DSC-PH, Supelco, PA, U.S.A.), or liquid-liquid extraction with various solvents (ethyl acetate, toluene, dichloromethane). […] These samples were then analyzed using HPLC-MS with ion trap mass analyzer implementing the settings described previously with minor modifications (for details of the analyses see Supplementary Material, part 2.1). […]

[6] = test system: H9c2 heart-derived myoblasts; test: In-vitro metabolism of the drugs in H9c2 cells (HPLC-MS); type: in vitro ADME, rat; conditions: H9c2, 10 μmol·L^−1, 12 h, 37°C
Experimental: as §3, §4, §5

[7] = design: method as in PMID 21658021; conditions: cited from earlier work
[8] = test system: oxyhemoglobin in red blood cells; design: method as in PMID 22508546; conditions: cited from earlier work
[9] = high concentration level (2.105-3.115 µmol·L-1)
[10] = low concentration level (0.035-0.156 µmol·L-1)
[11] = medium concentration level (0.702-1.558 µmol·L-1)

SMILES | IC50 [1] [nM] | IC50 [2] [nM] | IC50 [3] [nM] | intracellular Fe chelation efficacy (in words) [4] | Long-term stability [5, 9] [%] | Long-term stability [5, 10] [%] | Long-term stability [5, 11] [%] | decomposition on storage (in words) [5] | metabolism in cancer cells (MCF-7 cells) | metabolism in heart-derived myoblasts [6] | toxicity after oral administration [7] | oxidation of oxyhemoglobin to methemoglobin [8]
CN(C)C(=S)NN=C(c1ccccn1)c1ccccn1 [Dp44mT, di(2-pyridyl)ketone 4,4-dimethyl-3-thiosemicarbazone] | 2 | 157 ± 51 | 2 to 9 | high intracellular chelation efficacy | 94.93 | 112.56 | 108.06 | No significant decomposition | do not undergo significant metabolism | do not undergo significant metabolism | toxic after oral administration | 
CN(C(=S)NN=C(c1ccccn1)c1ccccn1)C1CCCCC1 [DpC, di(2-pyridyl)ketone 4-cyclohexyl-4-methyl-3-thiosemicarbazone] | 3 ± 1 | 412 ± 177 | 3 to 5 | comparable to Dp44mT | 112.39 | 85.12 | 87.76 | No significant decomposition | do not undergo significant metabolism | do not undergo significant metabolism |  | does not induce oxidation of oxyhemoglobin to methemoglobin
